What was measured:
[1] = tested on: phosphorylated p42 and p44 MAPK in PC12 cells; assay: p42/44 MAPK activation in PC12 cells (Western blot); type: cell-based, rat
Procedure: (§1) Phosphorylation of MAPK was analyzed in cell lysates and the loading of the lanes normalized to levels of non-phospho MAPK.
(§2) PC12 cells originated from rat pheochromocytoma purchased from ATCC, were grown to confluence in T75 flasks, containing DMEM (1000 mg/l glucose) and supplemented with 5% fetal calf serum (FCS), 10% horse serum, and a mixture of 1% of penicillin/streptomycin/nystatin [11]. NRVM cultures were prepared from ventricles of 1–2 day old Sprague-Dawley rats, as previously described (ethics number Il-106-11-2007). Briefly, the ventricles of the excised hearts were dissociated with 0.1% RDB, a protease isolated from fig tree extract (Institute of Biology, Nes-Ziona,Israel), and the dispersed cells were resuspended in F-10 culture medium containing 1 mM CaCl2, 100 U/mL penicillin-streptomycin, 5% FCS, 5% donor horse serum, and 25 mg of bromodeoxyuridine (5-bromo-2′-deoxyuridine, BrdU).Cell cultures were incubated at 37°C in a humid 5% CO2-95% air environment. For all experiments, cells were initially seeded in full-serum cultured media and then replaced into serum-free media containing the respective supplements.
PC12 cells or NRVM cultures were resuspended in RIPA (20 mM Tris–HCl pH 7.4, 200 mM NaCl, 1% Triton-X 100, 0.1% SDS, 0.2% sodium deoxycholate, 5 mM EDTA) containing cocktail protease inhibitors (Roche, Basel Switzerland). The lysates were precleared by centrifugation. Protein content was determined using the Bradford method (Sigma Chemical Co. St. Louis, MO, USA).Equal amounts of sample were resolved on sodium dodecyl sulfate-polyacrylamide gel electrophoresis (SDS-PAGE) and blotted onto polyvinylidenedifluoride membranes (Millipore, Billerica, MA, USA). Membranes were treated with blocking buffer (5% dry milk, 0.05% Tween 20 in TBS). Primary antibodies were diluted in the blocking buffer and incubated with membranes for 20 h at 4°C followed by incubation (1 h at room temperature) in dilutions of horseradish peroxidase-conjugated secondary antibodies in the same buffer. Following antibody incubations, membranes were washed in 0.5% Tween 20 TBS. Detection was achieved using Western blotting ECL reagent (Amersham, Pharmacia, Little Chalfort Buckinghamshire, UK). Quantification of the results was accomplished by measuring the optical density of the labeled bands from the autoradiograms, using the computerized imaging program Bio-1D (VilberLourmat Biotech. Bioprof., France). The values were normalized to β-actin intensity levels.

[2] = tested on: phosphorylated p42 and p44 MAPK in neonatal rat ventricular myocytes (NRVM); assay: p42/44 MAPK activation in NRVM (Western blot); type: cell-based
Procedure: PC12 cells originated from rat pheochromocytoma purchased from ATCC, were grown to confluence in T75 flasks, containing DMEM (1000 mg/l glucose) and supplemented with 5% fetal calf serum (FCS), 10% horse serum, and a mixture of 1% of penicillin/streptomycin/nystatin [11]. NRVM cultures were prepared from ventricles of 1–2 day old Sprague-Dawley rats, as previously described (ethics number Il-106-11-2007). […]
as §1
PC12 cells or NRVM cultures were resuspended in RIPA (20 mM Tris–HCl pH 7.4, 200 mM NaCl, 1% Triton-X 100, 0.1% SDS, 0.2% sodium deoxycholate, 5 mM EDTA) containing cocktail protease inhibitors (Roche, Basel Switzerland). […] Protein content was determined using the Bradford method (Sigma Chemical Co. St. Louis, MO, USA).Equal amounts of sample were resolved on sodium dodecyl sulfate-polyacrylamide gel electrophoresis (SDS-PAGE) and blotted onto polyvinylidenedifluoride membranes (Millipore, Billerica, MA, USA). […] Quantification of the results was accomplished by measuring the optical density of the labeled bands from the autoradiograms, using the computerized imaging program Bio-1D (VilberLourmat Biotech. Bioprof., France). […]

[3] = tested on: cleaved caspase 3 in NRVM; assay: Cleaved caspase 3 in serum-deprived NRVM (Western blot); type: cell-based, rat; conditions: serum free medium, efaroxan 10 µM, TVP1022 20 µM
Procedure: NRVM cells were incubated in full serum medium for 24 h before replacing to serum free medium. […] A. Apoptotic nuclei were identified by TUNEL analysis. […] B. Representative Western blots and quantitative results of cleaved caspase 3 protein expression. The loading of the lanes was normalized to β-actin levels.
PC12 cells or NRVM cultures were resuspended in RIPA (20 mM Tris–HCl pH 7.4, 200 mM NaCl, 1% Triton-X 100, 0.1% SDS, 0.2% sodium deoxycholate, 5 mM EDTA) containing cocktail protease inhibitors (Roche, Basel Switzerland). The lysates were precleared by centrifugation. Protein content was determined using the Bradford method (Sigma Chemical Co. St. Louis, MO, USA).Equal amounts of sample were resolved on sodium dodecyl sulfate-polyacrylamide gel electrophoresis (SDS-PAGE) and blotted onto polyvinylidenedifluoride membranes (Millipore, Billerica, MA, USA). Membranes were treated with blocking buffer (5% dry milk, 0.05% Tween 20 in TBS). […] Quantification of the results was accomplished by measuring the optical density of the labeled bands from the autoradiograms, using the computerized imaging program Bio-1D (VilberLourmat Biotech. Bioprof., France). […]

[4] = tested on: neonatal rat ventricular myocytes (NRVM); assay: Serum deprivation-induced apoptosis in NRVM (TUNEL); type: cell-based; conditions: serum free medium, efaroxan 10 µM pre-incubation, TVP1022 20 µM
Procedure: as §2, with “For all experiments, cells were initially seeded in full-serum cultured media and then replaced into serum-free media containing the respective supplements.” left out
In situ DNA fragmentation was performed by the terminal deoxynucleotidyl transferase-mediated deoxyuridine triphosphate-digoxigenin nick end labeling (TUNEL). […] Quantification of the apoptotic cells was calculated as the ratio of TUNEL-positive cells to the total number of cells in the same slide.
NRVM cells were incubated in full serum medium for 24 h before replacing to serum free medium. […] B. Representative Western blots and quantitative results of cleaved caspase 3 protein expression. […]

I2 imidazoline receptor = I2 imidazoline receptor binding assay ([3H]idazoxan); conditions: [3H]idazoxan 2 nM, rat cerebral cortex
Excerpt: (§3) The specific ligand binding to the receptors is defined as the difference between the total binding and the nonspecific binding determined in the presence of an excess of unlabelled ligand, as described in Table 1.
(§4) The specific ligand binding to the receptors is defined as the difference between the total binding and the nonspecific binding determined in the presence of an excess of unlabelled ligand (Table 1). The IC50 values (concentration causing a half-maximal inhibition of control specific binding) and Hill coefficients (nH) were determined by non-linear regression analysis of the competition curves generated with mean replicate values using Hill equation curve fitting [Y = D+((A – D)/(1+(C/C50) nH)], where Y = specific binding, D = minimum specific binding, A = maximum specific binding, C = compound concentration, C50 = IC50, and nH = slope factor). This analysis was performed using SigmaPlot ® 4.0 for Windows ® (© 1997 by SPSS Inc.). The inhibition constants (Ki) were calculated using the Cheng Prusoffequation [Ki = IC50/(1+(L/KD)], where L = concentration of radioligand in the assay, and KD = affinity of the radioligand for the receptor).

I1 imidazoline receptor = I1 imidazoline receptor binding assay ([3H]clonidine); conditions: [3H]clonidine 15 nM, bovine adrenal medulla glands
Excerpt: as §3, §4

In the case of `COc1cccc(-c2cc(=O)c3ccccc3o2)c1N` [PD98059], the “effect on TVP1022-induced increase of MAPK phosphorylation” value ([1]; PD98059 30 µM pretreatment 30 min, TVP1022 20 µM) is reported as “significantly blocked” and the “effect on TVP1022-induced ERK phosphorylation” value ([2]; PD98059 30 µM pre-incubation 30 min) is reported as “abolished”.

With `CCC1(C2=NCCN2)Cc2ccccc2O1` (stereo not drawn) [efaroxan] the “effect on TVP1022-induced MAPK activation” value ([1]; efaroxan 10 µM pre-incubation 30 min, TVP1022 20 µM) was “abolished”, the “effect on moxonidine-induced phosphorylation of p42 and p44 MAPK” value ([1]; efaroxan 10 µM pre-incubation, moxonidine 1 µM) was “abolished” and the “effect on TVP1022-suppressive effects on caspase 3” value [3] was “markedly reversed”. For the same compound, the “effect on TVP1022-mediated increases in p42 and p44 MAPK phosphorylation” value ([2]; efaroxan 10 µM pre-incubation, TVP1022 10 and 20 µM) was “antagonized” and the “effect on TVP1022-induced cytoprotective effect (TUNEL)” value [4] was “markedly prevented”.

`c1ccc2c(c1)OCC(C1=NCCN1)O2` (stereo not drawn) [idazoxan, reference compound] showed an IC50 (I2 imidazoline receptor; 30 min 22°C) of 16 nM and a Ki (I2 imidazoline receptor; Cheng Prusoff equation) of 10 nM.

With `COc1nc(C)nc(Cl)c1N=C1NCCN1` [monoxidine, moxonidine] the “effect on phosphorylation of p42 and p44 MAPK” value ([1]; 1 µM, 30 min) was “increased”.

Compound `C1COC(NC(C2CC2)C2CC2)=N1` [rilmenidine, reference compound] has an IC50 (I1 imidazoline receptor; 60 min 22°C) of 160 nM and a Ki (I1 imidazoline receptor; Cheng Prusoff equation) of 84 nM.

Reference: PMC3499525 (PLoS ONE, 2012)
